This is an account of results in patent publication US6875422B2, “Oral treatment/care agent” (priority 2000, dated 2005).

For the assay the following is noted: used alone.

Experimental: Here, a complete cure was determined by comparing the configuration and properties (hardness and color, in clinical practice) of the periodontium, mobility of the teeth, depth of pockets, hemorrhaging, pus discharge, effusion, bacterial flora within the pocket and the like, against those of a normal person (excepting any dramatic periodontial regeneration such as dramatic bone growth relative to the normal person through this medication alone).

Turning to `C[C@@H]1[C@H](O)[C@@H](C)/C=C/C=C/C=C/C=C/C=C/C=C/C=C/[C@H](O[C@@H]2O[C@H](C)[C@@H](O)[C@H](N)[C@@H]2O)C[C@@H]2O[C@](O)(C[C@@H](O)C[C@@H](O)[C@H](O)CC[C@@H](O)C[C@@H](O)CC(=O)O[C@H]1C)C[C@H](O)[C@H]2C(=O)O` [amphotericin, amphotericin B], the “occurrences on use alone” value is given as “annual-term occurrences”.
